Reference: US20210221866A1, “PROTEASE-RESISTANT LIPIDATED GLP-1 ANALOGS” (MEDIMMUNE LIMITED, priority 2015, published 2021)
Like-named read-outs stand apart in the source and are kept apart here. Numbered stars: 1 amine (or outer) side, 2 acyl side, 3 side chain; on linkers, the order of the positions; unused ones are H or OH. Square brackets hold non-standard residues; d marks the D form. Side chains are listed from the residue outwards. Peptide text beside a SMILES is read from it. * marks the point of attachment. C18 diacid = O=C(O)CCCCCCCCCCCCCCCCC(=O)*; γGlu = O=C(O)[C@H](CCC(=O)[*:2])N[*:1]; αMeF = C[C@](N)(Cc1ccccc1)C(=O)O; αMeK = C[C@](N)(CCCCN)C(=O)O; αMeS = C[C@](N)(CO)C(=O)O; AEEA = NCCOCCOCC(=O)O; Aib = CC(C)(N)C(=O)O

Tests used:
Format in all cases: cell-based
[1] = target: T1, human GLP-1 receptor (GLP-1R) (Homo sapiens, UniProt P43220); assay: cAMP assay, human GLP-1R cells; settings: cAMP activity
T1 construct: expressed in transfected cells; host or cells: HEK293 cells or CHO cells
T1 sequence (P43220 24-463): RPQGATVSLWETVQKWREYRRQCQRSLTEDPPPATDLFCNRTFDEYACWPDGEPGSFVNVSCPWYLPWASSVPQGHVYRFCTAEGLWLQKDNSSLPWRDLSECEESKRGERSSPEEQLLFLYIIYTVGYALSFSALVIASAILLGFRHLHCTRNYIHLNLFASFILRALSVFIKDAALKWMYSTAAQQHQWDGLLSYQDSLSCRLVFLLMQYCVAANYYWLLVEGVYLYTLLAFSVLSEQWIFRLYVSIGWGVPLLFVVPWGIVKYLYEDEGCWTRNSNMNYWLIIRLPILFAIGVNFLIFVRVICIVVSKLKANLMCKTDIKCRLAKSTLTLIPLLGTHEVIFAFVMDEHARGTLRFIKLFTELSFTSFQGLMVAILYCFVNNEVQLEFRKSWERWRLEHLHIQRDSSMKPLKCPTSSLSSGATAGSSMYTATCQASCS
Outline: (§1)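 Peptide-stimulated cAMP measured by two-step HTRF after a 30 min room-temperature incubation with receptor-expressing cells (hGLP-1R, hGIPR at 1×10^5 cells/ml; hGCGR at 2×10^5 cells/ml). Duplicate dilutions; EC50 from 4-parameter logistic fit of % Delta F.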

[2] = target: T2, human glucagon receptor (GCGR) (Homo sapiens, UniProt P47871); assay: cAMP assay, human GCGR cells; settings: cAMP activity; second determination (n2); read-out: Primary assay EC50 Gluc-R
T2 construct: expressed in transfected cells; host or cells: HEK293 cells or CHO cells
T2 sequence (P47871 26-477): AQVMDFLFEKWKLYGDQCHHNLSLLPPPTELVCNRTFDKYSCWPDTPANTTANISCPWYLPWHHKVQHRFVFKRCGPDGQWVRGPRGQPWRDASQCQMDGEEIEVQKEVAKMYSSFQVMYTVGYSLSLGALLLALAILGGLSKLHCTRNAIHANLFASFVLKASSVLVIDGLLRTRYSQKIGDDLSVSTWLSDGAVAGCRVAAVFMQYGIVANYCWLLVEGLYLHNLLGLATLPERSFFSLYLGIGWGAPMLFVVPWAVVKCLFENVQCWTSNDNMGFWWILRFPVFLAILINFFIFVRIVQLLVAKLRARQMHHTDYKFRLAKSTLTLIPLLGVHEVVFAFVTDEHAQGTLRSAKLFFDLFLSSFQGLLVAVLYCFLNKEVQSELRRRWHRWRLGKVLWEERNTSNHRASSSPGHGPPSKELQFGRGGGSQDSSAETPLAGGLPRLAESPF
Outline: as §1

[3] = target: T3, human glucose-dependent insulinotropic peptide receptor (GIPR) (Homo sapiens, UniProt P48546); assay: cAMP assay, human GIPR cells; settings: cAMP activity, read-out: Primary assay EC50 GIP-R
T3 construct: expressed in transfected cells; host or cells: HEK293 cells or CHO cells
T3 sequence (P48546 22-466): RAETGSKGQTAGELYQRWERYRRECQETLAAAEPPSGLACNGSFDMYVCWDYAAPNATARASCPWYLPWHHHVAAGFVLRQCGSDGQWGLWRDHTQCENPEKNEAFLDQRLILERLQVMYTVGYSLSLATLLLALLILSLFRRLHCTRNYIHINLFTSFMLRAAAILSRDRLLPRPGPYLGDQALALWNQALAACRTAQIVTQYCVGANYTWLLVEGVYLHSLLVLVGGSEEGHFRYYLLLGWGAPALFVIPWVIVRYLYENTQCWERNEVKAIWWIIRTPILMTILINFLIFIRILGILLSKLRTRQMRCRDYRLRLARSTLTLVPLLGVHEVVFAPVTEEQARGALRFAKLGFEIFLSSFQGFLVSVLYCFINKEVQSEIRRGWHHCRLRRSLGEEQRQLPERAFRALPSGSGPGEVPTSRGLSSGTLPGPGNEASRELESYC
Outline: as §1

[4] = target: T4, GLP-1R (INS1e cells) (Rattus norvegicus, UniProt P32301); assay: INS1e assay, cAMP activity at GLP-1R; settings: Table 8, substituted and mono-lipidated peptides
T4 construct: endogenous in cells; host or cells: INS1e cells
T4 sequence (P32301 22-463): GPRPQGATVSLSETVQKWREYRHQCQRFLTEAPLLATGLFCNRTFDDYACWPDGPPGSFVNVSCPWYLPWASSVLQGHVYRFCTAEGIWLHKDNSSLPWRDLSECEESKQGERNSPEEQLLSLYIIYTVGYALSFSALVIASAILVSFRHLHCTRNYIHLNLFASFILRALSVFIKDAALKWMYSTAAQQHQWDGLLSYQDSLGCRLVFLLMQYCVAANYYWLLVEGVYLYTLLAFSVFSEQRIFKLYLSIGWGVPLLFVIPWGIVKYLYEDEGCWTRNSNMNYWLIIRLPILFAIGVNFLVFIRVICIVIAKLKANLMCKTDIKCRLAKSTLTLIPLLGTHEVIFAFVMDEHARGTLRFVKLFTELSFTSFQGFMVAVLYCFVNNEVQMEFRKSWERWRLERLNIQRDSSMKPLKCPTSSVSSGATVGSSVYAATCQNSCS

[5] = first determination (n1), read-out: Primary assay EC50 GLP-1R n1
[6] = mean of n1 and n2, read-out: Mean pM GLP-1R
[7] = second determination (n2), read-out: Primary assay EC50 GLP-1R n2
[8] = mean of n1 and n2, read-out: INS1e assay EC50 Mean pM GLP-1R
[9] = replicate n1, read-out: INS1e assay EC50 GLP-1R n1
[10] = replicate n2, read-out: INS1e assay EC50 GLP-1R n2

SMILES | EC50 [1, 5] [pM] | EC50 [1, 6] [pM] | EC50 [1, 7] [pM] | EC50 [2] [nM] | EC50 ([3]; first determination (n1)) [nM] | EC50 ([3]; second determination (n2)) [nM] | EC50 [4, 8] [pM] | EC50 [4, 9] [pM] | EC50 [4, 10] [pM]
CC[C@H](C)[C@H](NC(=O)[C@](C)(Cc1ccccc1)NC(=O)[C@H](CCC(=O)O)NC(=O)[C@H](CCCCNC(=O)COCCOCCNC(=O)COCCOCCNC(=O)CC[C@H](NC(=O)CCCCCCCCCCCCCCCCC(=O)O)C(=O)O)NC(=O)[C@H](C)NC(=O)[C@H](C)NC(=O)[C@H](CCC(=O)O)NC(=O)CNC(=O)[C@H](CCC(=O)O)NC(=O)[C@H](CC(C)C)NC(=O)[C@H](Cc1ccc(O)cc1)NC(=O)[C@H](CO)NC(=O)[C@](C)(CO)NC(=O)[C@@H](NC(=O)[C@H](CC(=O)O)NC(=O)[C@H](CO)NC(=O)[C@@H](NC(=O)[C@](C)(Cc1ccccc1)NC(=O)[C@H](CO)NC(=O)CNC(=O)[C@H](CCC(=O)O)NC(=O)C(C)(C)NC(=O)[C@@H](N)Cc1c[nH]cn1)[C@@H](C)O)C(C)C)C(=O)N[C@@H](C)C(=O)N[C@@](C)(Cc1ccccc1)C(=O)N[C@H](C(=O)N[C@H](C(=O)N[C@@](C)(CCCCN)C(=O)NCC(=O)NCC(N)=O)C(C)C)C(C)C [compound 47] (H-H[Aib]EGS[αMeF]TSDV[αMeS]SYLEGEAAK([AEEA-AEEA-γGlu-C18 diacid])E[αMeF]IA[αMeF]VV[αMeK]GG-NH2; N-terminus assumed) | 37 | 43.3 | 50 | ≥ 25 | ≥ 25 | ≥ 25 | 9670 | 7130 | 12200
CC[C@H](C)[C@H](NC(=O)[C@](C)(Cc1ccccc1)NC(=O)[C@H](CCC(=O)O)NC(=O)[C@H](CCCCNC(=O)COCCOCCNC(=O)COCCOCCNC(=O)CC[C@H](NC(=O)CCCCCCCCCCCCCCCCC(=O)O)C(=O)O)NC(=O)[C@H](C)NC(=O)[C@H](C)NC(=O)[C@H](CCC(=O)O)NC(=O)CNC(=O)[C@H](CCC(=O)O)NC(=O)[C@H](CC(C)C)NC(=O)[C@](C)(Cc1ccccc1)NC(=O)[C@H](CO)NC(=O)[C@](C)(CO)NC(=O)[C@@H](NC(=O)[C@H](CC(=O)O)NC(=O)[C@H](CO)NC(=O)[C@@H](NC(=O)[C@](C)(Cc1ccccc1)NC(=O)[C@H](CO)NC(=O)CNC(=O)[C@H](CCC(=O)O)NC(=O)C(C)(C)NC(=O)[C@@H](N)Cc1c[nH]cn1)[C@@H](C)O)C(C)C)C(=O)N[C@@H](C)C(=O)N[C@@H](Cc1c[nH]c2ccccc12)C(=O)N[C@H](C(=O)N[C@H](C(=O)N[C@@](C)(CCCCN)C(=O)NCC(=O)NCC(N)=O)C(C)C)C(C)C [compound 49] (H-H[Aib]EGS[αMeF]TSDV[αMeS]S[αMeF]LEGEAAK([AEEA-AEEA-γGlu-C18 diacid])E[αMeF]IAWVV[αMeK]GG-NH2; N-terminus assumed) | 96 | 124 | 150 | ≥ 25 | ≥ 25 | ≥ 25 | 10000 | 9350 | 10700
CC[C@H](C)[C@H](NC(=O)[C@](C)(Cc1ccccc1)NC(=O)[C@H](CCC(=O)O)NC(=O)[C@](C)(CCCCN)NC(=O)[C@H](C)NC(=O)[C@H](C)NC(=O)[C@H](CCC(=O)O)NC(=O)CNC(=O)[C@H](CCC(=O)O)NC(=O)[C@H](CC(C)C)NC(=O)[C@](C)(Cc1ccccc1)NC(=O)[C@H](CO)NC(=O)[C@](C)(CO)NC(=O)[C@@H](NC(=O)[C@H](CC(=O)O)NC(=O)[C@H](CO)NC(=O)[C@@H](NC(=O)[C@](C)(Cc1ccccc1)NC(=O)[C@H](CO)NC(=O)CNC(=O)[C@H](CCC(=O)O)NC(=O)C(C)(C)NC(=O)[C@@H](N)Cc1c[nH]cn1)[C@@H](C)O)C(C)C)C(=O)N[C@@H](C)C(=O)N[C@@](C)(Cc1ccccc1)C(=O)N[C@H](C(=O)N[C@H](C(=O)N[C@@](C)(CCCCN)C(=O)NCC(=O)N[C@@H](CCCCNC(=O)COCCOCCNC(=O)COCCOCCNC(=O)CC[C@H](NC(=O)CCCCCCCCCCCCCCCCC(=O)O)C(=O)O)C(N)=O)C(C)C)C(C)C [compound 99] (H-H[Aib]EGS[αMeF]TSDV[αMeS]S[αMeF]LEGEAA[αMeK]E[αMeF]IA[αMeF]VV[αMeK]GK([AEEA-AEEA-γGlu-C18 diacid])-NH2; N-terminus assumed) | 58 | 54 | 49.3 | ≥ 24.9 | ≥ 25 | ≥ 24.9 | 8440 | 11000 | 5880

Stronger by EC50 [1, 5], values ahead:

EC50 [1, 5] [pM] | EC50 [1, 6] [pM] | EC50 [1, 7] [pM] | EC50 [2] [nM] | EC50 ([3]; first determination (n1)) [nM] | EC50 ([3]; second determination (n2)) [nM] | EC50 [4, 8] [pM] | EC50 [4, 9] [pM] | EC50 [4, 10] [pM] | SMILES
2.9 | 3.2 | 3.5 | ≥ 26 | ≥ 26 | ≥ 26 | 56 | 35.2 | 77 | CCCCCCCCCCCCCCCCCC(=O)NCCOCCOCC(=O)NCCOCCOCC(=O)NCCOCCOCC(=O)NCCCC[C@H](NC(=O)[C@H](C)NC(=O)[C@H](C)NC(=O)[C@H](CCC(=O)O)NC(=O)CNC(=O)[C@H](CCC(=O)O)NC(=O)[C@H](CC(C)C)NC(=O)[C@](C)(Cc1ccccc1)NC(=O)[C@H](CO)NC(=O)[C@](C)(CO)NC(=O)[C@@H](NC(=O)[C@H](CC(=O)O)NC(=O)[C@H](CO)NC(=O)[C@@H](NC(=O)[C@](C)(Cc1ccccc1)NC(=O)[C@H](CO)NC(=O)CNC(=O)[C@H](CCC(=O)O)NC(=O)C(C)(C)NC(=O)[C@@H](N)Cc1c[nH]cn1)[C@@H](C)O)C(C)C)C(=O)N[C@@H](CCC(=O)O)C(=O)N[C@@](C)(Cc1ccccc1)C(=O)N[C@H](C(=O)N[C@@H](C)C(=O)N[C@@](C)(Cc1ccccc1)C(=O)N[C@H](C(=O)N[C@H](C(=O)N[C@@H](CCCCN)C(=O)NCC(=O)NCC(N)=O)C(C)C)C(C)C)[C@@H](C)CC [compound 56]
24 | 22 | 20.6 | ≥ 25.2 | ≥ 25 | ≥ 25.2 | 3560 | 4220 | 2890 | CC[C@H](C)[C@H](NC(=O)[C@](C)(Cc1ccccc1)NC(=O)[C@H](CCC(=O)O)NC(=O)[C@](C)(CCCCN)NC(=O)[C@H](C)NC(=O)[C@H](C)NC(=O)[C@H](CCC(=O)O)NC(=O)CNC(=O)[C@H](CCC(=O)O)NC(=O)[C@H](CC(C)C)NC(=O)[C@](C)(Cc1ccccc1)NC(=O)[C@H](CO)NC(=O)[C@](C)(CO)NC(=O)[C@@H](NC(=O)[C@H](CC(=O)O)NC(=O)[C@H](CO)NC(=O)[C@@H](NC(=O)[C@](C)(Cc1ccccc1)NC(=O)[C@H](CO)NC(=O)CNC(=O)[C@H](CCC(=O)O)NC(=O)C(C)(C)NC(=O)[C@@H](N)Cc1c[nH]cn1)[C@@H](C)O)C(C)C)C(=O)N[C@@H](C)C(=O)N[C@@](C)(Cc1ccccc1)C(=O)N[C@H](C(=O)N[C@@H](CCCCNC(=O)COCCOCCNC(=O)COCCOCCNC(=O)CC[C@H](NC(=O)CCCCCCCCCCCCCCCCC(=O)O)C(=O)O)C(=O)N[C@@](C)(CCCCN)C(=O)NCC(=O)NCC(N)=O)C(C)C [compound 102] (H-H[Aib]EGS[αMeF]TSDV[αMeS]S[αMeF]LEGEAA[αMeK]E[αMeF]IA[αMeF]VK([AEEA-AEEA-γGlu-C18 diacid])[αMeK]GG-NH2)
